Assay results from ChEMBL document CHEMBL1201862, “PubChem BioAssay data set” (2004).
pIC50: −log10 of the molar value. Calls of active or inactive are those of the source.

Key:
[1] = biological target: T1, Nucleotide-binding oligomerization domain-containing protein 2 (Homo sapiens, UniProt Q9HC29); test: NOD2 inhibitors, SAR follow-up, set 2 (AID 2475); assay type: functional
HEK293 [2] = test: SAR analysis of compounds that are cytotoxic to HEK293 - Set 2. [Related pubchem assays (depositor defined):AID1575, AID1578, AID1849, AID2001, AID2333, AID2334, AID2335, AID2337, AID2800]; assay type: functional, cell-based; conditions: Homo sapiens
HEK293 [3] = test: cells; assay type: functional, cell-based; conditions: Homo sapiens
Tumor necrosis factor [4] = biological target: T2, Tumor necrosis factor (Homo sapiens, UniProt P01375); test: TNFa-triggered NF-kB activation inhibitors, SAR follow-up, cell-based, revised (AID 2337); assay type: functional
HEK293 [5] = test: SAR analysis of compounds that are cytotoxic to HEK293 - Set 3. [Related pubchem assays (depositor defined):AID1575, AID1578, AID1848, AID1849, AID2001, AID2333, AID2334, AID2335, AID2337, AID2469]; assay type: functional, cell-based; conditions: Homo sapiens
HEK293 [6] = test: cells; assay type: functional, cell-based; conditions: Homo sapiens; remark: listed apart in the source
[7] = biological target: T1, Nucleotide-binding oligomerization domain-containing protein 2; test: NOD2 signaling inhibitors, analog potency, SAR follow-up, cell-based, set 3 (AID 2799); assay type: functional
Tumor necrosis factor [8] = biological target: T2, Tumor necrosis factor; test: TNFa-triggered NF-kB activation inhibitors, SAR follow-up, cell-based, set 3 (AID 2801); assay type: functional
HEK293 [9] = test: cells; conditions: Homo sapiens
HEK293 [10] = test: NOD2 signaling inhibitors in MDP-stimulated cells, cell-based, uHTS, luminescence (AID 2001); assay type: functional; conditions: Homo sapiens
[11] = biological target: T1, Nucleotide-binding oligomerization domain-containing protein 2; test: PubChem AID 2334; assay type: functional
[12] = biological target: T3, Delta-type opioid receptor (Homo sapiens, UniProt P41143); test: HTS Image-Based Screen for Agonists of the DOR Receptor. [Related pubchem assays (depositor defined):AID1777, AID1786, AID2133]; assay type: functional
[13] = biological target: T4, Kappa-type opioid receptor (Homo sapiens, UniProt P41145); assay type: functional
Mu-type opioid receptor [14] = biological target: T5, Mu-type opioid receptor (Homo sapiens, UniProt P35372); test: HTS Image-Based Screen for Agonists of the MOR Receptor. [Related pubchem assays (depositor defined):AID1777, AID1785, AID1786, AID2133]; assay type: functional
Beta-galactosidase = Beta-galactosidase (Escherichia coli, UniProt Q8VNN2); assay type: functional
[15] = biological target: T3, Delta-type opioid receptor; test: HTS Image-Based Screen for Antagonists of the DOR Receptor. [Related pubchem assays (depositor defined):AID1777, AID1785, AID1786, AID2133]; assay type: functional
[16] = biological target: T4, Kappa-type opioid receptor; assay type: functional; remark: listed apart in the source
Mu-type opioid receptor [17] = biological target: T5, Mu-type opioid receptor; test: SAR Analysis of Agonists of the MOR Receptor using an Image-Based Assay - Set 3. [Related pubchem assays (depositor defined):AID1777, AID1785, AID1786, AID1966, AID2133, AID2136, AID2284, AID2285, AID2352]; assay type: functional
[18] = biological target: T4, Kappa-type opioid receptor; test: SAR analysis of small molecule agonists of the kappa opioid receptor via a luminescent beta-arrestin assay - Set 3. [Related pubchem assays (depositor defined):AID1777, AID1785, AID1786, AID1966, AID2133, AID2136, AID2284, AID2500]; assay type: functional
[19] = biological target: T3, Delta-type opioid receptor; test: SAR Analysis of Agonists of the DOR Receptor using an Image-Based Assay - Set 3. [Related pubchem assays (depositor defined):AID1777, AID1786]; assay type: functional
[20] = biological target: T4, Kappa-type opioid receptor; test: KOR agonist analogs, arrestin-GFP redistribution, SAR follow-up, imaging, image-based, set 3 (AID 488833); assay type: functional

T2 sequence (P01375 whole entry): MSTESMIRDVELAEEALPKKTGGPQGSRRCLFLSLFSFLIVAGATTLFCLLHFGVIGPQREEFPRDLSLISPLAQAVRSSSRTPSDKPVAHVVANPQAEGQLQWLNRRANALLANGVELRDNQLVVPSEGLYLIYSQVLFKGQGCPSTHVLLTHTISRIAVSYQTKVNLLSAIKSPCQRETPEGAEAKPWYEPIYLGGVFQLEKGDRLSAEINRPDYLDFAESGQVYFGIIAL
T4 sequence (P41145 whole entry): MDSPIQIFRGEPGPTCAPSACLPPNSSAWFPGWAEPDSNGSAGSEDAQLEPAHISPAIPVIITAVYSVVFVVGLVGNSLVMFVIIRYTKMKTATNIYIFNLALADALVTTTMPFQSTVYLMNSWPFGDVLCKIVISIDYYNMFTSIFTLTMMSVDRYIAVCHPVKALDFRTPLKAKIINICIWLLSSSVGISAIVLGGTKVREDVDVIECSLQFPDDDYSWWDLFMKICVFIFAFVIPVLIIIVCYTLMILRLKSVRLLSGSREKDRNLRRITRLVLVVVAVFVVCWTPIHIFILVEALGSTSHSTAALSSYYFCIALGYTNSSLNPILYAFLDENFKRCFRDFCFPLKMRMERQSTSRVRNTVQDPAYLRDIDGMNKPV
T3 sequence (P41143 whole entry): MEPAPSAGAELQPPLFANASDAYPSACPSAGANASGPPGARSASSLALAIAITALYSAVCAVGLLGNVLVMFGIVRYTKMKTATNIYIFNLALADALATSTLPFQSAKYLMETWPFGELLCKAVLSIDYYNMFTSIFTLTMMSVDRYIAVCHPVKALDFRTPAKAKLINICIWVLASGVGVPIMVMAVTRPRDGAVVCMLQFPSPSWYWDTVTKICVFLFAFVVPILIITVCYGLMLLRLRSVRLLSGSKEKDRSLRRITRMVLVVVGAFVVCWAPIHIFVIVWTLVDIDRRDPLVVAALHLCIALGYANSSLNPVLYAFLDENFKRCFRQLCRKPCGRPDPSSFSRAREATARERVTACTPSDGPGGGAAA
T1 sequence (Q9HC29 whole entry, the tested form may be a part): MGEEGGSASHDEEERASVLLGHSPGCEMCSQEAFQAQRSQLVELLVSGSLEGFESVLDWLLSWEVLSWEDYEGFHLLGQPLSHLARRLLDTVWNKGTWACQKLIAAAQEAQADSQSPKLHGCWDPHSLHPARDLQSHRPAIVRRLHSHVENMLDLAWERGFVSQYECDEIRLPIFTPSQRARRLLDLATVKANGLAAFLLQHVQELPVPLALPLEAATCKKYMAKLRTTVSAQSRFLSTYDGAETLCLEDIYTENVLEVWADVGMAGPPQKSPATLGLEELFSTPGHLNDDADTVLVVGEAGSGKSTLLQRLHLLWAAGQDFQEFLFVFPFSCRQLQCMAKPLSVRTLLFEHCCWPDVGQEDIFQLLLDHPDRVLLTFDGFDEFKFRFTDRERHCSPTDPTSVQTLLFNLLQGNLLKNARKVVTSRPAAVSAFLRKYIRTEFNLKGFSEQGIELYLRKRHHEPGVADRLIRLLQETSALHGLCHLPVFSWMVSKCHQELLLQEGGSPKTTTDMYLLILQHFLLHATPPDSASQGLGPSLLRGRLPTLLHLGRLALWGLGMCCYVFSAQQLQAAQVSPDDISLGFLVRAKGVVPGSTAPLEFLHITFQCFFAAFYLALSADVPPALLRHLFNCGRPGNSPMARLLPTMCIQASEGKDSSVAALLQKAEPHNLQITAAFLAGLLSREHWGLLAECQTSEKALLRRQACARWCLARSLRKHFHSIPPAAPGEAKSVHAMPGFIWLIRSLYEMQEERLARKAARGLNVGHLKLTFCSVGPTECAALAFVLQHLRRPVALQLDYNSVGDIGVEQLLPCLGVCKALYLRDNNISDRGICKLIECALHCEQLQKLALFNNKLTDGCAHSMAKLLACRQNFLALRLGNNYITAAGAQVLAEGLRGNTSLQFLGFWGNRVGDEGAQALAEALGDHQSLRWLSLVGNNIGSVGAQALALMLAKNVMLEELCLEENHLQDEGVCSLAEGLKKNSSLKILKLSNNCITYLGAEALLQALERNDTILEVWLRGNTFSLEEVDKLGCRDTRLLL
T5 sequence (P35372 whole entry): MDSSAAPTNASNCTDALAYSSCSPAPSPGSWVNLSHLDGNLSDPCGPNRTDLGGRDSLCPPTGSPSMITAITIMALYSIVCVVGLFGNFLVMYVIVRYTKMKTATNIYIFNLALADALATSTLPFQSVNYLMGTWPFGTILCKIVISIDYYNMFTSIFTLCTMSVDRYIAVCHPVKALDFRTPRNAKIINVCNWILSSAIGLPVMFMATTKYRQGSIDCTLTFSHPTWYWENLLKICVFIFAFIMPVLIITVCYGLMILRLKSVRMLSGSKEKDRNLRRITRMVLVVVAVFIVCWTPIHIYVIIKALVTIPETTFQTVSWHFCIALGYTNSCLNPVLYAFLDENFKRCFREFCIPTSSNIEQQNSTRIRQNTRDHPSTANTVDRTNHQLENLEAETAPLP
Beta-galactosidase, sequence (Q8VNN2 whole entry): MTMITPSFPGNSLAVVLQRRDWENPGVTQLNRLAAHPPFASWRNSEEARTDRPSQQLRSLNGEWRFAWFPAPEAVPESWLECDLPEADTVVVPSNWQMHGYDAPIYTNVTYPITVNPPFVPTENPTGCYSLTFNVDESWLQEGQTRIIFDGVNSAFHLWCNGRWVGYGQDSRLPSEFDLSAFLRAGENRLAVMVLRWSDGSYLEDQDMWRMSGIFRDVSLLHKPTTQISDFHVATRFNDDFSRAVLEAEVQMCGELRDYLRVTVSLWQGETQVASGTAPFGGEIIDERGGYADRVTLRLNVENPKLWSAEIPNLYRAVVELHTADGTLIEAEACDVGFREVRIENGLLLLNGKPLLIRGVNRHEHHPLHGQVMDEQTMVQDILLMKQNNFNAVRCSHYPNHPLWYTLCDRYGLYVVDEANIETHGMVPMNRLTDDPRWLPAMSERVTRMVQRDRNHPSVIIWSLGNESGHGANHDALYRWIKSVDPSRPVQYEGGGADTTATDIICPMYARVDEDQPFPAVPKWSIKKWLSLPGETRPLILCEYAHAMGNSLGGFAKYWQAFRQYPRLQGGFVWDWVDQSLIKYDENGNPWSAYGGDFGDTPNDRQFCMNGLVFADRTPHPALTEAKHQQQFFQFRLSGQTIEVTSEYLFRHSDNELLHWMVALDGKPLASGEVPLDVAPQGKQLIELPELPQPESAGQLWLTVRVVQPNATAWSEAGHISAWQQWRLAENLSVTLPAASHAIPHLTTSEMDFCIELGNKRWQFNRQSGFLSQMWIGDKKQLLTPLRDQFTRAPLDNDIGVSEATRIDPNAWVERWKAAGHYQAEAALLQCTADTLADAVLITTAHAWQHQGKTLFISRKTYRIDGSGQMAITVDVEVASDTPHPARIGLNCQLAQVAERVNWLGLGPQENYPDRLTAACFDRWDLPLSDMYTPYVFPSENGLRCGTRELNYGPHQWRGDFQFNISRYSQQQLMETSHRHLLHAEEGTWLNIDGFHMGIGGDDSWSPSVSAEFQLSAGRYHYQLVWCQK

In the case of `Cc1ccc(S(=O)(=O)n2c(N)nc3ccccc32)cc1`, the IC50 [1] was > 20 µM (inactive), the IC50 (HEK293 [2]) was > 20 µM (inactive) and the IC50 (HEK293 [3]) was > 20 µM (inactive). The IC50 (Tumor necrosis factor [4]) was > 20 µM (inactive), the IC50 (HEK293 [5]) was > 20 µM (inactive) and the IC50 (HEK293 [6]) was > 20 µM (inactive). The IC50 [7] was > 20 µM (inactive), the IC50 (Tumor necrosis factor [8]) was > 20 µM (inactive) and the IC50 (HEK293 [9]) was > 20 µM (inactive). For the same compound, the IC50 (HEK293 [10]) was > 20 µM (inactive) and the IC50 [11] was > 20 µM (inactive).

For `Cc1nc(-c2ccccn2)[nH]c(=S)c1Cl`, the EC50 [12] was > 32 µM (inactive), the pIC50 [13] was under 4.49 and the EC50 (Mu-type opioid receptor [14]) was > 32 µM (inactive). For the same compound, the EC50 (Beta-galactosidase) was > 31.5 µM (inactive), the IC50 [15] was > 32 µM (inactive) and the IC50 [16] was 20.3 µM (inactive).

For `FC(F)(F)c1ccc(CSc2nnc(-c3ccccn3)n2Cc2cccs2)cc1`, the EC50 (Mu-type opioid receptor [17]) was > 32 µM (inactive), the EC50 [18] was 1.23 µM (active) and the EC50 [19] was > 32 µM (inactive). The EC50 [20] was 0.621 µM (active).
